Results taken from PubChem BioAssay AID330 (DTP/NCI, 2004).
Where “and” joins values, the source holds several entries; their conditions need not be identical. Identical values can stand only once. Toxic doses and inconclusive results are not listed.

Test system: P388 leukemia ip, CD2F1 mice, survival T/C
Assay: NCI In Vivo Anticancer Drug Screen. Data for tumor model P388 Leukemia (intraperitoneal) in CD2F1 (CDF1) mice
Conditions: endpoint: median survival time, higher = longer survival
Method in brief: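 Mice carrying the transplanted tumor received test compound or vehicle. Survival was recorded in each group, and the value is the treated-group measurement divided by that of the vehicle-treated control group.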

[1] = dose: 60.0 mg/kg/injection, schedule: Q01DX005 (ip), vehicle: saline with Tween-80
[2] = dose: 120.0 mg/kg/injection, schedule: Q01DX005 (ip), vehicle: saline with Tween-80
[3] = dose: 240.0 mg/kg/injection, schedule: Q01DX005 (ip), vehicle: saline with Tween-80
[4] = dose: 25.0 mg/kg/injection, schedule: Q01DX009 (ip), vehicle: saline
[5] = dose: 50.0 mg/kg/injection, schedule: Q01DX009 (ip), vehicle: saline
[6] = dose: 50.0 mg/kg/injection, schedule: Q04DX003 (ip), vehicle: saline with Tween-80
[7] = dose: 6.25 mg/kg/injection, schedule: Q01DX005 (ip), vehicle: saline with Tween-80
[8] = dose: 12.5 mg/kg/injection, schedule: Q01DX005 (ip), vehicle: saline with Tween-80

COc1nc2c(nc(N)n2C2OC(COC(C)=O)C(OC(C)=O)C(OC(C)=O)C2OC(C)=O)c(=O)n1C (centres undefined)
T/C (dose: 60.0 mg/kg/injection, schedule: Q01DX005 (ip), vehicle: saline): 92 % of control | T/C (dose: 240.0 mg/kg/injection, schedule: Q01DX005 (ip), vehicle: saline): 92 % of control

Cn1/c(=N\N=C\c2ccccc2OCCO)sc2ccccc21
T/C (dose: 50.0 mg/kg/injection, schedule: Q01DX009 (ip), vehicle: saline + alcohol): 103 % of control | T/C (dose: 100.0 mg/kg/injection, schedule: Q01DX009 (ip), vehicle: saline + alcohol): 100 % of control | T/C (dose: 200.0 mg/kg/injection, schedule: Q01DX009 (ip), vehicle: saline + alcohol): 101 % of control

CC1(C)Cc2ccccc2/C1=C/c1ccccn1
T/C [1]: 98 % of control | T/C [2]: 100 % of control | T/C [3]: 108 % of control

C=CCc1cn(C2CC(OC(=O)c3ccc(Cl)cc3)C(COC(=O)c3ccc(Cl)cc3)O2)c(=O)[nH]c1=O (centres undefined)
T/C (dose: 50.0 mg/kg/injection, schedule: Q01DX005 (ip), vehicle: Klucel (hydroxypropylcellulose) (HPC)): 98 % of control | T/C (dose: 100.0 mg/kg/injection, schedule: Q01DX005 (ip), vehicle: Klucel (hydroxypropylcellulose) (HPC)): 98 % of control | T/C (dose: 200.0 mg/kg/injection, schedule: Q01DX005 (ip), vehicle: Klucel (hydroxypropylcellulose) (HPC)): 91 % of control

Cc1c[nH]c2nc(C)n(-c3ccc(F)cc3)c(=N)c12
T/C (dose: 6.25 mg/kg/injection, schedule: Q01DX005 (ip), vehicle: Klucel (hydroxypropylcellulose) (HPC)): 100 % of control | T/C (dose: 12.5 mg/kg/injection, schedule: Q01DX005 (ip), vehicle: Klucel (hydroxypropylcellulose) (HPC)): 102 % of control | T/C (dose: 25.0 mg/kg/injection, schedule: Q01DX005 (ip), vehicle: Klucel (hydroxypropylcellulose) (HPC)): 100 % of control

CC(=O)Nc1ccc[nH]c1=O
T/C (dose: 25.0 mg/kg/injection, schedule: Q01DX009 (ip), vehicle: Klucel (hydroxypropylcellulose) (HPC)): 108 % of control and 96 % of control | T/C [4]: 99 % of control and 110 % of control | T/C (dose: 50.0 mg/kg/injection, schedule: Q01DX009 (ip), vehicle: Klucel (hydroxypropylcellulose) (HPC)): 99 % of control and 104 % of control | T/C [5]: 108 % of control and 92 % of control | T/C (dose: 100.0 mg/kg/injection, schedule: Q01DX009 (ip), vehicle: Klucel (hydroxypropylcellulose) (HPC)): 99 % of control and 104 % of control | T/C (dose: 100.0 mg/kg/injection, schedule: Q01DX009 (ip), vehicle: saline): 103 % of control and 117 % of control | T/C (dose: 200.0 mg/kg/injection, schedule: Q01DX009 (ip), vehicle: Klucel (hydroxypropylcellulose) (HPC)): 101 % of control and 96 % of control | T/C (dose: 200.0 mg/kg/injection, schedule: Q01DX009 (ip), vehicle: saline): 101 % of control and 103 % of control | T/C (dose: 400.0 mg/kg/injection, schedule: Q01DX009 (ip), vehicle: Klucel (hydroxypropylcellulose) (HPC)): 109 % of control and 96 % of control | T/C (dose: 400.0 mg/kg/injection, schedule: Q01DX009 (ip), vehicle: saline): 104 % of control and 108 % of control

CCCCCCCCC[N+]1([O-])CCCCCC1
T/C (dose: 12.5 mg/kg/injection, schedule: Q01DX009 (ip), vehicle: saline): 100 % of control | T/C [4]: 99 % of control | T/C [5]: 105 % of control and 107 % of control

CCCCCCCCC(C(=O)c1ccccc1)=C(C(F)(F)F)C(F)(F)F
T/C (dose: 25.0 mg/kg/injection, schedule: Q04DX003 (ip), vehicle: saline with Tween-80): 100 % of control | T/C [6]: 95 % of control | T/C (dose: 100.0 mg/kg/injection, schedule: Q04DX003 (ip), vehicle: saline with Tween-80): 104 % of control

CCOC(=O)N1CCN(C(=S)N/N=C(\C)c2ncccn2)CC1
T/C [7]: 123 % of control | T/C [8]: 97 % of control

Cc1cc2c(c(=O)o1)C(C)CC(c1c(O)cc(C)oc1=O)O2 (centres undefined)
T/C [1]: 114 % of control | T/C [2]: 108 % of control | T/C [3]: 103 % of control

COc1cccc(/C(C#N)=N/NC(=O)c2nc[nH]c2C)c1
T/C (dose: 1.56 mg/kg/injection, schedule: Q01DX005 (ip), vehicle: saline with Tween-80): 93 % of control | T/C (dose: 3.12 mg/kg/injection, schedule: Q01DX005 (ip), vehicle: saline with Tween-80): 94 % of control | T/C [7]: 95 % of control | T/C [8]: 93 % of control | T/C (dose: 50.0 mg/kg/injection, schedule: Q01DX005 (ip), vehicle: saline with Tween-80): 86 % of control | T/C (dose: 100.0 mg/kg/injection, schedule: Q01DX005 (ip), vehicle: saline with Tween-80): 87 % of control | T/C (dose: 200.0 mg/kg/injection, schedule: Q01DX005 (ip), vehicle: saline with Tween-80): 100 % of control

O=NN(CCCl)C(=O)Nc1cc(Cl)ccc1O
T/C (dose: 50.0 mg/kg/injection, schedule: Q01DX009 (ip), vehicle: saline with Tween-80): 150 % of control | T/C [6]: 122 % of control
